Experimental data published in patent US20140155445A1, “Compounds and Methods for Treating Cancer and Diseases of the Central Nervous System” (Osta Biotechnologies Inc., priority 2007, published 2014).
Where a name gives a salt, the structure may show the parent alone. Read-outs that look alike come from different tables or passages of the source.

Experiments:
HO-2 (rat brain) = target: T1, HO-2 (rat brain) (Rattus norvegicus, UniProt P23711); experiment: HO enzymatic activity in rat brain microsomal fraction (CO formed from methemalbumin, gas chromatography); assay type: biochemical
T1 construct: brain microsomes were used as a source of HO-2; from tissue; host or cells: brain microsomal fraction of adult male Sprague-Dawley rats
T1 sequence (P23711 1-315): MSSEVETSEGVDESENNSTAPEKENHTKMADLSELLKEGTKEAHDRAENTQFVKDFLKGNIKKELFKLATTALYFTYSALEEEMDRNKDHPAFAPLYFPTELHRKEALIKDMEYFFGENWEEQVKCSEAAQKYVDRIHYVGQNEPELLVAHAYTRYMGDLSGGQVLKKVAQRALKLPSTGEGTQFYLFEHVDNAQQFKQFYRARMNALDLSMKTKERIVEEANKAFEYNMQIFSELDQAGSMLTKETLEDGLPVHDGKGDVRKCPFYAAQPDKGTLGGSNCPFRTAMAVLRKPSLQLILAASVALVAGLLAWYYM
Method: (§1) Incubations for HO activity analysis were done under conditions for which the rate of CO formation (pmol CO×min^−1×mg protein^−1) was linear with respect to time and microsomal protein concentration. Briefly, reaction mixtures (150 μL) consisting of 100 mM phosphate buffer (pH 7.4), 50 μM methemalbumin, and 1 mg/mL protein were pre-incubated with the inhibitors at final concentrations ranging from 0.1-100 μM for 10 minutes at 37° C. Reactions were initiated by adding NADPH at a final concentration of 1 mM and incubations were performed for an additional 15 minutes at 37° C.
(§2) Incubations for HO activity analysis were done under conditions for which the rate of CO formation (pmol CO/mg protein/minute) was linear with respect to time and microsomal protein concentration. Briefly, reaction mixtures (150 μL) consisting of 100 mM phosphate buffer (pH 7.4), 50 μM methemalbumin and 1 mg/mL protein were pre-incubated with the vehicle (ethanol or water in which the inhibitors were dissolved), or inhibitors at final concentrations ranging from 0.1-1000 μM for 10 minutes at 37° C. Reactions were initiated by adding β-NADPH at a final concentration of 1 mM and incubations were carried out for an additional 15 minutes at 37° C. Reactions were stopped by instantly freezing the reaction mixture on pulverized dry ice and CO formation was measured by gas chromatography using a TA 3000R Process Gas Analyzer (Trace Analytical/Ametek, Newark, Del., USA).
(§3) The values on the abscissa represent the decimal logarithm of the inhibitor's concentration (in μM), whereas the values of the activity on the ordinate are expressed as a percentage of the control experiments without inhibitor.
(§4) The IC50 values for the replicate experiments were employed to generate the reported standard deviation value.

HO-1 (rat spleen) = target: T2, HO-1 (rat spleen) (Rattus norvegicus, UniProt P06762); experiment: HO enzymatic activity in rat spleen microsomal fraction (CO formed from methemalbumin, gas chromatography); assay type: biochemical
T2 construct: Spleen microsomes were used as a source of HO-1; from tissue; host or cells: spleen microsomal fraction of adult male Sprague-Dawley rats
T2 sequence (P06762 1-289): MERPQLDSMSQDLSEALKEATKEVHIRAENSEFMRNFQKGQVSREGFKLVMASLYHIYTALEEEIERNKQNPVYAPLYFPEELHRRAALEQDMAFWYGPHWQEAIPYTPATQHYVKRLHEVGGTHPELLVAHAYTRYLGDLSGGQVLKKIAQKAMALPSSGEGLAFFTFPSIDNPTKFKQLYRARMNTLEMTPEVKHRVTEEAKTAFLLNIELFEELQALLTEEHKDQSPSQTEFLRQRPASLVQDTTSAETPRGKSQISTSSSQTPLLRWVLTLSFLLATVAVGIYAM
Method: as §1, §2, §3, §4

[1] = rat brain microsomes, average ± standard deviation of replicate experiments, read-out: IC50 HO-2 (rat brain)/μM
[2] = rat spleen microsomes, average ± standard deviation of replicate experiments, read-out: IC50 HO-1 (rat spleen)/μM

Row | Structure (SMILES) | IC50 (HO-2 (rat brain); [1]) | IC50 (HO-1 (rat spleen); [2]) | IC50 (HO-2 (rat brain)) | IC50 (HO-1 (rat spleen))
1 | Clc1ccc(CC[C@@]2(Cn3ccnc3)OCC(COc3ccc(C45CC6CC(CC(C6)C4)C5)cc3)O2)cc1 (stereo in doubt) [(2R,4S)-2-[2-(4-chlorophenyl)ethyl]-2-[(1H-imidazol-1-yl)methyl]-4-[(4-adamantan-1-yl-phenoxy)methyl]-1,3-dioxolane hydrochloride] | > 100 µM | > 100 µM |  | 
2 | c1ccc(Cc2ccc(C3(Cn4ccnc4)OCCO3)cc2)cc1 [1-[2-(4-benzyl-phenyl)-[1,3]dioxolan-2-ylmethyl]-1H-imidazole hydrochloride] | > 100 µM | 4.98 ± 0.08 µM |  | 
3 | COC(=O)Nc1nc2ccc([S+]([O-])c3ccccc3)cc2[nH]1 (stereo not shown) [(5-benzenesulfinyl-1H-benzoimidazol-2-yl)-carbamic acid methyl ester] | > 100 µM | 115 µM |  | 
4 | c1cn(CCCCCCCCCCn2ccnc2)cn1 [1,10-bis-(1H-imidazol-1-yl)decane dihydrochloride] | ~14 µM | ~10 µM |  | 
5 | Cc1ccc(S(=O)(=O)OC[C@H]2CO[C@](CCc3ccc(Cl)cc3)(Cn3ccnc3)O2)cc1 [(2S,4R)-2-[2-(4-chlorophenyl)ethyl]-2-[(1H-imidazol-1-yl)methyl]-4-[(p-toluenesulfonyloxy)meth-yl]-1,3-dioxolane] |  |  | 120 ± 34 µM | 17 ± 1 µM
6 | O/N=C(\Cn1ccnc1)c1ccc(Cl)cc1 [1-(4-chloro-phenyl)-2-imidazol-1-yl-ethanone oxime] | > 100 µM | 46 ± 8 µM |  | 
7 | [N-]=[N+]=NC[C@@H]1CO[C@@](CCc2ccc(Cl)cc2)(Cn2ccnc2)O1 [(2R,4R)-1-{4-azidomethyl-2-[2-(4-chloro-phenyl)-ethyl]-[1,3]dioxolan-2-ylmethyl}-1H-imidazole] | 38 ± 5 µM | 3.6 ± 0.2 µM |  | 
8 | O=C(Cn1ccnc1)c1ccc2c(c1)CCC2 [2-imidazol-1-yl-1-indan-5-yl-ethanone hydrochloride] | 37 ± 9 µM | 4.6 ± 0.1 µM |  | 
9 | Fc1ccc(COC(Cn2ccnc2)c2ccc(-c3ccc(Br)cc3)cc2)cc1 (racemic) [(±)-1-[2-(4′-bromo-biphenyl-4-yl)-2-(4-fluoro-benzyloxy)-ethyl]-1H-imidazole] | > 100 µM | 5 ± 2 µM |  | 
10 | c1ccc(Cn2ccnc2)cc1 [1-Benzyl-1H-imidazole hydrochloride] |  |  | > 100 µM | 44 ± 9 µM
11 | OC(CCc1ccccc1)Cn1cnc(-c2ccccc2)c1-c1ccccc1 (racemic) [(±)-1-(4,5-diphenyl-imidazol-1-yl)-4-phenyl-butan-2-ol] | > 100 µM | > 100 µM |  | 
12 | c1ccc(SCCn2ccnc2)cc1 [1-(2-phenylsulfanyl-ethyl)-1H-imidazole hydrochloride] | > 100 µM | 6 ± 0.1 µM |  | 
13 | O=C(Cn1ccnc1)c1cccc(Br)c1 [1-(3-Bromo-phenyl)-2-(1H-imidazol-1-yl)-ethanone hydrochloride] | 35 ± 3 µM | 2.1 ± 0.1 µM |  | 
14 | [O-][S+](CCCn1ccnc1)c1ccccc1 (stereo not shown) [1-(3-benzenesulfinyl-propyl)-1H-imidazole hydrochloride] | 22 ± 3 µM | 3.7 ± 0.4 µM |  | 
15 | c1ccc(CNCCCn2ccnc2)cc1 | > 100 µM | > 100 µM |  | 
16 | C[C@@H]1CO[C@@](CCc2ccc(Cl)cc2)(Cn2ccnc2)O1 [(2R,4R)-2-[2-(4-chlorophenyl)ethyl]-2-[(1H-imidazol-1-yl)methyl]-4-methyl-1,3-dioxolane hydrochloride] | 305 ± 25 µM | 0.8 ± 0.2 µM |  | 
17 | CC(C)(C)c1ccc(CCC(=O)Cn2ccnc2)cc1 [4-(4-tert-Butyl-phenyl)-1-(1H-imidazol-1-yl)-butan-2-one hydrochloride] | 0.9 ± 0.2 µM | 0.2 ± 0.03 µM |  | 
18 | OC(Cn1ccnc1)c1ccc(CCc2ccccc2)cc1 (racemic) [(±)-2-imidazol-1-yl-1-(4-phenethyl-phenyl)-ethanol] | 1 ± 1 µM | 0.225 ± 0.004 µM |  | 

Row | Structure (SMILES) | IC50 (HO-2 (rat brain); [1]) | IC50 (HO-1 (rat spleen); [2]) | IC50 (HO-2 (rat brain)) | IC50 (HO-1 (rat spleen))
19 | c1ccc(CCC2(Cn3ccnn3)OCCO2)cc1 [2-(2-phenethyl)-2-{(1H-[1,2,3]triazol-1-yl)methyl}-1,3-dioxolane hydrochloride] | > 100 µM | > 100 µM |  | 
20 | OC(CCc1ccccc1)Cn1cnc(-c2ccccc2)c1 (racemic) [(±)-4-phenyl-1-(4-phenyl-imidazol-1-yl)-butan-2-ol hydrochloride] | > 100 µM | 15 ± 1 µM |  | 
21 | O=C(CCn1ccnc1)C(c1ccccc1)c1ccccc1 [4-(1H-Imidazol-1-yl)-1,1-diphenyl-butan-2-one hydrochloride] | 2.2 ± 0.2 µM | 2.6 ± 0.1 µM |  | 
22 | Clc1ccc(C2(Cn3ccnc3)OCCO2)cc1 [1-[2-(4-chloro-phenyl)-[1,3]dioxolan-2-ylmethyl]-1H-imidazole hydrochloride] | > 100 µM | 19 ± 3 µM |  | 
23 | O=C(CCc1ccccc1)Cn1nnc(-c2ccccc2)n1 [4-Phenyl-1-(5-phenyl-tetrazol-2-yl)-butan-2-one] | > 100 µM | > 100 µM |  | 
24 | O=C(CCc1ccccc1)CCn1ccnc1 [1-imidazol-1-yl-5-phenyl-pentan-3-one hydrochloride] | 114 ± 56 µM | 28 ± 6 µM |  | 
25 | Clc1ccc(CCC2(Cn3ccnc3)OCCO2)cc1 [2-[2-(4-chlorophenyl)ethyl]-2-[(1H-imidazol-1-yl)methyl]-1,3-dioxolane hydrochloride] | > 100 µM | 4 ± 2 µM |  | 
26 | OC[C@@H]1CO[C@@](CCc2ccc(Cl)cc2)(Cn2ccnc2)O1 [(2R,4R)-2-[2-(4-chlorophenyl)ethyl]-2-[(1H-imidazol-1-yl)methyl]-4-(hydroxymethyl)-1,3-dioxolane hydrochloride] | > 100 µM | 12 ± 2 µM |  | 
27 | C[C@@H]1CO[C@@](CCc2ccccc2)(Cn2ccnc2)O1 [(2R,4R)-2-[2-(4-phenyl)ethyl]-2-[(1H-imidazol-1-yl)methyl]-4-methyl-1,3-dioxolane hydrochloride] | > 43 µM | 2 ± 1 µM |  | 
28 | c1ccc2cc(C3(Cn4cncn4)OCCO3)ccc2c1 [1-(2-naphthalen-2-yl-[1,3]dioxolan-2-ylmethyl)-1H-[1,2,4]triazole] | > 100 µM | 3.58 ± 0.08 µM |  | 
29 | COCC1CO[C@@](CCc2ccc(Cl)cc2)(Cn2ccnc2)O1 (stereo in doubt) [(2R,4S)-1-{2-[2-(4-chloro-phenyl)-ethyl]-4-methoxymethyl-[1,3]dioxolan-2-ylmethyl}-1H-imidazole hydrochloride] | 3.3 ± 0.9 µM | 1.73 ± 0.01 µM |  | 
30 | O=C(Cn1cncn1)c1cccc2ccccc12 [1-naphthalen-1-yl-2-[1,2,4]triazol-1-yl-ethanone hydrochloride] | 16 ± 5 µM | 0.79 ± 0.04 µM |  | 
31 | Nc1ccc(SC[C@@H]2CO[C@@](CCc3ccc(Cl)cc3)(Cn3ccnc3)O2)cc1 [(2R,4S)-2-[2-(4-chlorophenyl)ethyl]-2-[(1H-imidazol-1-yl)methyl]-4-[{(4-aminophenyl)thio}meth-yl]-1,3-dioxolane hydrochloride] | 8 ± 1 µM | 0.33 ± 0.07 µM |  | 
32 | Clc1ccc(CC[C@@]2(Cn3ccnc3)OC[C@@H](CSc3ccc4ccccc4c3)O2)cc1 [(2R,4S)-1-[2-[2-(4-chloro-phenyl)-ethyl]-4-(naphthalen-2-ylsulfanylmethyl)-[1,3]dioxolan-2-ylmethyl]-1H-imidazole hydrochloride] | 30 ± 4 µM | 0.9 ± 0.1 µM |  | 
33 | ClC[C@@H]1CO[C@@](CCc2ccc(Cl)cc2)(Cn2ccnc2)O1 [(2R,4S)-1-{4-chloromethyl-2-[2-(4-chloro-phenyl)-ethyl]-[1,3]dioxolan-2-ylmethyl}-1H-imidazole hydrochloride] | 122 ± 30 µM | 3.5 ± 0.1 µM |  | 
34 | O=C(Cn1ccnc1)c1ccc(F)cc1 [1-(4-fluoro-phenyl)-2-imidazol-1-yl-ethanone hydrochloride] | 35 ± 3 µM | 2.1 ± 0.1 µM |  | 
35 | Clc1ccc(C(Cn2ccnc2)NCc2ccccc2)cc1 (racemic) [(±)-benzyl-[1-(4-chloro-phenyl)-2-imidazol-1-yl-ethyl]amine dihydrochloride] | 22 ± 4 µM | 3.39 ± 0.08 µM |  | 
